Where “and” joins values, the source holds several entries; their conditions need not be identical. Equal values may be shown once. Entries after “also recorded” stand apart in the source; their conditions may differ.
Assays:
recombinant human FAK = details: in vitro; background statement, no reference given; read-out: IC50, inhibition of recombinant human FAK activity; cited from earlier work
UGT1A1 = details: in vitro; no reference given; cited from earlier work
[1] = test system: advanced solid tumor malignancies; test: antitumor activity by RECIST v1.1; type: in vivo, human
Experimental: (§1) This was a phase 1, open-label, dose-escalation study to evaluate the safety and PK of VS-6063, a FAK inhibitor in Japanese subjects with advanced solid tumor malignancies. This study was expected to enroll up to 18 evaluable subjects with non-hematologic malignancies if 6 subjects were assigned at each of the 3 planned dose levels of 200, 400, and 600 mg BID. VS-6063 was administered orally, BID, in continuous 21 day cycles. Subject enrollment proceeded according to a standard 3 + 3 design. In the absence of DLT, each subject received oral VS-6063 (BID) for a minimum of 21 days of continuous daily dosing (1 cycle) and could continue to receive additional cycles of study treatment until disease progression was documented or other treatment discontinuation criteria were met. All patients within a cohort were required to complete 1 cycle (21 days) of dosing with <1 of 3 or <2 of 6 subjects experiencing a DLT prior to escalation to the next dose level in a new cohort. Three subjects were to be treated at each dose level until the first instance of DLT, after which up to 6 subjects were to be treated at that dose level. […] The MTD was defined as the highest dose level studied at which <1 subject out of 3 or <2 subjects out of 6 experienced a DLT. The RP2D was to be determined in discussion among the sponsor, medical monitor, and investigators. Observations related to PK and any VS-6063-related toxicities were included in the rationale supporting the RP2D. Safety and tolerability was assessed by the incidence and severity of AEs as determined by National Cancer Institute (NCI) Common Terminology Criteria for Adverse Events (CTCAE v4.03). The antitumor activity of study treatment was assessed according to the Response Evaluation Criteria in Solid Tumors (RECIST v1.1).

CYP 2C, 2D, 3A = details: preclinical evidence; no reference given; cited from earlier work
[2] = 24-h urine collection, elimination of VS-6063 and metabolites; type: in vivo, human; details: all dose cohorts
Text: To assess the elimination of VS-6063 and its potential metabolites, total 24-h urine output was to be collected on Cycle 1 Day 1 and Cycle 1 Day 15 in conjunction with PK sampling.

[3] = phase 1 safety and tolerability (CTCAE v4.03) in Japanese patients with advanced solid tumors; type: in vivo; details: for Grade 3 AE of unconjugated hyperbilirubinemia: 200 mg BID cohort; for dose-limiting toxicities (DLTs): 200–600 mg BID
Experimental: as §1

other nontarget kinases = details: background statement, no reference given; cited from earlier work
[4] = preclinical; no reference given; cited from earlier work
[5] = basis of the BID schedule; first-in-human experience; cited from earlier work
[6] = 200 mg BID, N = 3, listed as defactinib
[7] = 400 mg BID, N = 3, listed as defactinib
[8] = 600 mg BID, N = 3, listed as defactinib
[9] = Total, N = 9, listed as defactinib

CNC(=O)c1ccc(Nc2ncc(C(F)(F)F)c(NCc3nccnc3N(C)S(C)(=O)=O)n2)cc1 [VS-6063, defactinib]
IC50 (recombinant human FAK): 0.6 nM | UGT1A1 inhibition (UGT1A1): UGT1A1 inhibitors in vitro | median time to disease progression, range across dose cohorts ([1]; 200, 400, 600 mg cohorts): 61 to 64 days | objective radiographic responses ([1]; 200–600 mg BID): No objective radiographic responses were observed | best response overall: stable disease ([1]; out of 9 subjects (33 %), 1 subject in each dose cohort): 3 subjects | durable stable disease ([1]; two subjects (malignant mesothelioma 400 mg and rectal cancer 600 mg)): approximately 24 weeks | potential for CYP 2C-, 2D- or 3A-mediated drug interactions (CYP 2C, 2D, 3A): low potential | detection in urine [2]: detected in the urine of all patients | amount in urine, percent relative to the total dose administered, range ([2]; 24-h urine): 0.0439 to 0.356% | CL renal ([2]; human, oral, 24-h urine, Days 1 and 15, read-out: mean renal clearance (CLr), range): 1.43 to 2.98 mL/min | Grade 3 AE of unconjugated hyperbilirubinemia [3]: Only one subject | Grade 3 AE of unconjugated hyperbilirubinemia ([3]; listed as defactinib): Only one patient | Anemia, treatment-related adverse event ([3]; 200 mg BID, N = 3): 0 n (%) | Aspartate aminotransferase increased, treatment-related adverse event ([3]; 200 mg BID, N = 3): 1 (33.3) n (%) | Blood alkaline phosphatase increased, treatment-related adverse event ([3]; 200 mg BID, N = 3): 2 (66.7) n (%) | Blood bilirubin increased, treatment-related adverse event ([3]; 200 mg BID, N = 3): 3 (100.0) n (%) | Decreased appetite, treatment-related adverse event ([3]; 200 mg BID, N = 3): 2 (66.7) n (%) | Diarrhea, treatment-related adverse event ([3]; 200 mg BID, N = 3): 0 n (%) | Fatigue, treatment-related adverse event ([3]; 200 mg BID, N = 3): 2 n (%) and 2 (66.7) n (%) | Headache, treatment-related adverse event ([3]; 200 mg BID, N = 3): 0 n (%) | Nausea, treatment-related adverse event ([3]; 200 mg BID, N = 3): 1 (33.3) n (%) | Blood bilirubin increased, treatment-related adverse event [3, 6]: 3 n (%) | Nausea, treatment-related adverse event [3, 6]: 1 n (%) | Anemia, treatment-related adverse event ([3]; 400 mg BID, N = 3): 0 n (%) | Aspartate aminotransferase increased, treatment-related adverse event ([3]; 400 mg BID, N = 3): 0 n (%) | Blood alkaline phosphatase increased, treatment-related adverse event ([3]; 400 mg BID, N = 3): 0 n (%) | Blood bilirubin increased, treatment-related adverse event ([3]; 400 mg BID, N = 3): 2 (66.7) n (%) | Decreased appetite, treatment-related adverse event ([3]; 400 mg BID, N = 3): 1 (33.3) n (%) | Diarrhea, treatment-related adverse event ([3]; 400 mg BID, N = 3): 1 (33.3) n (%) | Fatigue, treatment-related adverse event ([3]; 400 mg BID, N = 3): 1 n (%) and 1 (33.3) n (%) | Headache, treatment-related adverse event ([3]; 400 mg BID, N = 3): 1 (33.3) n (%) | Nausea, treatment-related adverse event ([3]; 400 mg BID, N = 3): 0 n (%) | Blood bilirubin increased, treatment-related adverse event [3, 7]: 2 n (%) | Diarrhea, treatment-related adverse event [3, 7]: 1 n (%) | Anemia, treatment-related adverse event ([3]; 600 mg BID, N = 3): 2 (66.7) n (%) | Aspartate aminotransferase increased, treatment-related adverse event ([3]; 600 mg BID, N = 3): 1 (33.3) n (%) | Blood alkaline phosphatase increased, treatment-related adverse event ([3]; 600 mg BID, N = 3): 0 n (%) | Blood bilirubin increased, treatment-related adverse event ([3]; 600 mg BID, N = 3): 2 (66.7) n (%) | Decreased appetite, treatment-related adverse event ([3]; 600 mg BID, N = 3): 1 (33.3) n (%) | Diarrhea, treatment-related adverse event ([3]; 600 mg BID, N = 3): 2 (66.7) n (%) | Fatigue, treatment-related adverse event ([3]; 600 mg BID, N = 3): 3 n (%) and 3 (100.0) n (%) | Headache, treatment-related adverse event ([3]; 600 mg BID, N = 3): 1 (33.3) n (%) | Nausea, treatment-related adverse event ([3]; 600 mg BID, N = 3): 1 (33.3) n (%) | Blood bilirubin increased, treatment-related adverse event [3, 8]: 2 n (%) | Diarrhea, treatment-related adverse event [3, 8]: 2 n (%) | Nausea, treatment-related adverse event [3, 8]: 1 n (%) | recommended Phase 2 dose (RP2D) ([3]; Japanese subjects): 400 mg BID | Anemia, treatment-related adverse event ([3]; Total, N = 9): 2 (22.2) n (%) | Aspartate aminotransferase increased, treatment-related adverse event ([3]; Total, N = 9): 2 (22.2) n (%) | Blood alkaline phosphatase increased, treatment-related adverse event ([3]; Total, N = 9): 2 (22.2) n (%) | Blood bilirubin increased, treatment-related adverse event ([3]; Total, N = 9): 7 (77.8) n (%) | Decreased appetite, treatment-related adverse event ([3]; Total, N = 9): 4 (44.4) n (%) | Diarrhea, treatment-related adverse event ([3]; Total, N = 9): 3 (33.3) n (%) | Fatigue, treatment-related adverse event ([3]; Total, N = 9): 6 (66.7) n (%) | Headache, treatment-related adverse event ([3]; Total, N = 9): 2 (22.2) n (%) | Nausea, treatment-related adverse event ([3]; Total, N = 9): 2 (22.2) n (%) | Blood bilirubin increased, treatment-related adverse event [3, 9]: 7 n (%) | Decreased appetite, treatment-related adverse event [3, 9]: 4 n (%) | Diarrhea, treatment-related adverse event [3, 9]: 3 n (%) | Fatigue, treatment-related adverse event [3, 9]: 6 n (%) | Nausea, treatment-related adverse event [3, 9]: 2 n (%) | AEs leading to death, SAEs, AEs leading to early study withdrawal ([3]; all dose cohorts): no AEs leading to death or SAEs, and no AEs leading to early study withdrawal | concurrent increases in ALT or AST above ULN in subjects with hyperbilirubinemia ([3]; all dose cohorts): no increase in ALT or AST values associated with the increases in bilirubin | proteinuria ([3]; all dose cohorts): no subject developed any grade of proteinuria | concurrent increases in ALT or AST above ULN in subjects with hyperbilirubinemia ([3]; all dose cohorts, listed as defactinib): None of these subjects had concurrent increases in ALT or AST above ULN | tolerability ([3]; all dose levels investigated): well tolerated at all dose levels investigated; also recorded: acceptable safety profile | ECG parameters and QTc interval ([3]; any dose cohort): No clinically meaningful changes in any ECG parameter were observed for any dose cohort and no subject had a QTc interval ≥500 ms or QTc increase from baseline >30 ms | dose-limiting toxicities (DLTs) ([3]; any dose cohort): No dose-limiting toxicities were observed at any dose level | dose-limiting toxicities (DLTs) ([3]; any dose cohort, listed as defactinib): No DLTs were reported in any dose cohort | subjects requiring dose modification for increased bilirubin ([3]; of the 9 subjects): 1 subjects | time to resolution of Grade 3 hyperbilirubinemia after onset ([3]; one patient, 200 mg cohort, following interruption of study drug): 6 days | onset of hyperbilirubinemia after initiating treatment ([3]; typical onset, asymptomatic): ≤ 2 weeks | selectivity for FAK and Pyk2 over other nontarget kinases (other nontarget kinases): more than 100 fold | potential target organs in toxicology studies [4]: liver and gall bladder, gastrointestinal tract, hematopoietic system, testes/epididymis, and cardiovascular system | observed human half-life [5]: 9.0 h

Reference: publication PMC4844649, “A first-in-Asian phase 1 study to evaluate safety, pharmacokinetics and clinical activity of VS-6063, a focal adhesion kinase (FAK) inhibitor in Japanese patients with advanced solid tumors” (Cancer Chemotherapy and Pharmacology, 2016)
